Assay results from patent publication US20090056397A1, “NITROGEN CONTAINING FERTILIZER FOR PLANT GROWTH” (SweTree Technologies AB, priority 2000, published 2009).
Where two headings read alike, the source gives them in different places.

Experiments:
[1] = tested on: pine plants; test: Cultivation trials with pine plants in peat using various nitrogen sources; format: in vivo; settings: 59 days; for change in growth of the pine plants on charge increase from three to ten millimoles per litre: nitrogen 3 mM to 10 mM; for growth of the pine plants (mean dry weight), ranking of the nitrogen sources: greenhouse 20° C., nitrogen 1, 3 and 10 mM, FIG. 1
Method: The cultivation trials presented below were carried out over a time period of 59 days in a greenhouse that was kept at a constant temperature of 20° C. Lighting was kept at 150 micromole light per square meter (m^2) and second (s). The lamps used to this end were Philips Powertone SON-T+400 Watt. 720 pine seeds were sown in pots that contained 0.5 litre unfertilized (but weakly […] five seeds per pot. The pots were plastic pots that included typically four small holes in the bottom of the pot. […] Fertilizer was administered on Monday and Tuesday of each week and the seeds, and later the seedlings or shoots, were watered each Sunday. The nutrient mixture and the water were both brought a pH of 5.0 with hydrochloric acid. Both the nutrient mixture and the water were administered manually to each pot with the aid of so-called bird pipette having a capacity of one decilitre. […] Eight different nutrient mixtures were tested and the nitrogen for each nutrient mixture was charged in three different concentrations, namely concentrations of one millimole per litre (1 mM), three millimole per litre (3 mM) and ten millimole per litre (10 mM). Six pots, and therewith thirty plants, were used for each nutrient mixture and each concentration, giving a total of 144 pots. […] Further dilution was required to obtain respective concentrations of three millimole and one millimole. The remaining seven nutrient mixtures were obtained, by preparing a stock solution that coincides totally with the before described commercial product but with the exception that the nitrogen source in the form of 61.5% nitrogen in nitrate form and 38.5% nitrogen in ammonium form was excluded. […] Each nutrient mixture based on the latter two nitrogen sources were prepared and have been given the designation +(plus) in the following. The addition is that the stock solution has been charged with twice the conventional amount of both potassium and magnesium. As those skilled in this art will realise, this has been done because a significant increase in the amount of ammonium nitrogen at the cost of the amount of nitrate nitrogen may result in a potassium and magnesium deficiency from the nutrient aspect. It will be noted that with regard to the inventive fertilizer, i.e. the basic protein amino acid arginine that contains four nitrogen atoms, the concentration has been calculated on the basis of one nitrogen atom, which means that the actual addition of the acid calculated in grams per litre is comparatively low or very low. At the end of the cultivation trials, the thirty pine plans in each trial series were taken up and their dry weight determined in grams. […] The sign I stand for the standard error defined as the standard deviation (which is a well defined term to describe the spread between tests) divided by the square root of the number of samples, in this case thirty samples.

[2] = tested on: spruce plants; test: Cultivation trials with spruce plants in peat using various nitrogen sources; format: in vivo; settings: 59 days
Excerpt: 720 spruce seeds were sown in peat at the same time as and in parallel with the above described trials. The trials carried out on spruce seeds and on spruce plants stemming from the seed were identical to the earlier described trials. […] The standard deviation is also shown in this case.

[3] = for Retention % (adsorption or retention of the chemicals in the peat): 0.2 millimole chemical per gram peat, 5 millimolar solution, one hour at room temperature, mean of three tests, HPLC of liquid phase; for amount of supplied chemical found in the liquid (water) phase: same test as the retention, liquid phase above the peat
Method: A given amount of peat of the same kind as that used in the cultivation trials and whose properties have been given above was dried in an oven at a temperature of 60° C. for 20 hours. […] Portions of this peat corresponding to 0.25 grams were inserted into nine test tubes. 5 ml water was delivered to each test tube, this water having been purified in filters from the company Millipore. The test tubes and their contents were then allowed to stand at room temperature for 20 hours, so that the peat would become wet through.
The aforesaid three chemicals, each in solid state, were weighed into three equal portions. Each portion was dissolved in 5 ml water that had been purified in the before described manner. The amount or weight of the substance was such as to obtain a substance concentration of 5 millimolar.
Each of the nine chemical solutions was delivered to a respective test tube that contained water-drenched peat. The amount of chemical added was 0.2 millimole per gram peat in all cases. Subsequent to supplying said liquid, each test tube was shaken by hand and thereafter allowed to stand at room temperature for one hour. The materials in the test tubes layered, such that the lowermost third contained a substantially clear liquid phase and the remainder of the tube contained liquid-drenched peat. A pipette was inserted into the test tube down to approximately midway of the liquid phase. About 1.5 millilitres of liquid was drawn off through the pipette and analysed with respect to its chemical content with the aid of HPLC-chromatography (HPLC=High Performance Liquid Chromatography).
As evident from the foregoing, three similar tests were carried out for each chemical.

SMILES | change in growth of the pine plants on charge increase from three to ten millimoles per litre [1] | growth of the pine plants at a charge of three millimoles per litre ([1]; nitrogen 3 mM) | state of the spruce plants at the end of the trial (toxicity limit) ([2]; nitrogen charge of ten millimoles per litre) | Retention % (adsorption or retention of the chemicals in the peat) [3] [%] | Retention % (adsorption or retention of the chemicals in the peat) ([3]; listed as ammonium) [%] | amount of supplied chemical found in the liquid (water) phase [3] | growth of the pine plants (mean dry weight), ranking of the nitrogen sources [1] | growth of the pine plants with increase in the nitrogen addition ([1]; nitrogen 1 to 3 to 10 mM) | growth of the spruce plants with increased nitrogen charges ([2]; nitrogen 1 to 3 to 10 mM) | Retention % (adsorption or retention of the chemicals in the peat) ([3]; listed as arginine) [%] | Retention % (adsorption or retention of the chemicals in the peat) ([3]; listed as glycine)
Cl.N [Ammonium (NH4^+), ammonium chloride] | catastrophic reduction in growth | sufficiently good growth | dead at the end of the trial | 28.0 | 28 | more than 70% |  |  |  |  | 
N=C(N)NCCC[C@H](N)C(=O)O [Arginine, arginine] |  |  |  | 89.1 |  | ~11% | best growth | increased constantly with an increase in the nitrogen addition | constantly increased growth | ~90 | 
NCC(=O)O [Glycine, glycine] | slight decrease in growth or at least not an increased growth |  |  | −1.9 |  |  | these three preparations are followed by the nutrient mixture that includes glycine |  |  |  | less than zero
